Data taken from patent US20240150377A1, “MODULATORS OF CYSTIC FIBROSIS TRANSMEMBRANE CONDUCTANCE REGULATOR” (VERTEX PHARMACEUTICALS INCORPORATED, priority 2020, published 2024).

Target: T1, CFTR (Homo sapiens, UniProt P13569, DEL508-508)
T1 construct: endogenous in cells; host or cells: primary human bronchial epithelial cells from CF subjects (F508del/MF-HBE), differentiated at air-liquid interface
Assay: HBE2 assay: Ussing chamber assay of CFTR-mediated short-circuit currents
Assay type: cell-based
Settings: F508del/MF-HBE cells, with 44 nM potentiator, 18-24 hours, 20% human serum
Procedure, shortened: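 Corrector activity read as CFTR-dependent ISC (μA/cm^2): peak forskolin current minus post-inhibitor steady state. Measured at 37 °C, voltage clamp at 0 mV, on F508del/MF-HBE epithelia grown >14 days air-liquid interface in Ussing chambers.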

T1 sequence (P13569 with tags, fused parts or gaps DEL508-508): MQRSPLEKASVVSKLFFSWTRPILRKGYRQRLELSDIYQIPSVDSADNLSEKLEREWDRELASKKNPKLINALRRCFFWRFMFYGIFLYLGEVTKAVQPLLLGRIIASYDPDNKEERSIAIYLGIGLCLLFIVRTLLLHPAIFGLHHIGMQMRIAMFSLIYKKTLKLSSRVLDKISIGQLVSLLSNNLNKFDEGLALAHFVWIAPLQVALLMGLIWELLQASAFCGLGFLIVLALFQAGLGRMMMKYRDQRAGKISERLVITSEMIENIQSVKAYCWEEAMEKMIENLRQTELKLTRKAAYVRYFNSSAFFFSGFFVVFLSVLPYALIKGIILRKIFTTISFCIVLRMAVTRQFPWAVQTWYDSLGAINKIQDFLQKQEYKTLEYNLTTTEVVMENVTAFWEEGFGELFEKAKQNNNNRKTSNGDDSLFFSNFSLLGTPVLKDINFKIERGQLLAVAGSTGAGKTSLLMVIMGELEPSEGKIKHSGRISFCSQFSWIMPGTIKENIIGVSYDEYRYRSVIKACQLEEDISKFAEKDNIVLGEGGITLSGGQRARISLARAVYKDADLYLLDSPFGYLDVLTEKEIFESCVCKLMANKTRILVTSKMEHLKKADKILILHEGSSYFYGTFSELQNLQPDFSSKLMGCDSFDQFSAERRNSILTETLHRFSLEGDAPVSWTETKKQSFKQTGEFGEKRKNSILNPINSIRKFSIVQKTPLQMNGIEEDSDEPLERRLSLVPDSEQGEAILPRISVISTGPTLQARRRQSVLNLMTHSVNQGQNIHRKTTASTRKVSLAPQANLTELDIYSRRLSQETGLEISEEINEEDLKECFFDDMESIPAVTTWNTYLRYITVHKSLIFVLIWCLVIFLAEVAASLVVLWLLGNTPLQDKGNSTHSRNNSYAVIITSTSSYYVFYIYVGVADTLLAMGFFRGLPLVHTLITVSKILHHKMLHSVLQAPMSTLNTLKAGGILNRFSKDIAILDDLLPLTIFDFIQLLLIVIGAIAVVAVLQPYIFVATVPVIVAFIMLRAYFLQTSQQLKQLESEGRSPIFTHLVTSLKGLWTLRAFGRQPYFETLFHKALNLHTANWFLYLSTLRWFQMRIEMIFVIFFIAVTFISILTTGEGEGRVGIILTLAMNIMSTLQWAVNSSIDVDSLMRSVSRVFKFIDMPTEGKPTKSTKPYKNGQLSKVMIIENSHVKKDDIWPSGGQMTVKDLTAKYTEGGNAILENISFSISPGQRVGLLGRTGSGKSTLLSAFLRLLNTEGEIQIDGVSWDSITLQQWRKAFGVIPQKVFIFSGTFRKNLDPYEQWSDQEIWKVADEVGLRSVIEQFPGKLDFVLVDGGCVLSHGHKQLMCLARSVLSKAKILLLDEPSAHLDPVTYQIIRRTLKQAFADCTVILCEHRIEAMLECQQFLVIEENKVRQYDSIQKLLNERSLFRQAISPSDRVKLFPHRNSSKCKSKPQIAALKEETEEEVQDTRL

Row | SMILES | HBE2 Activity at 3 μM (%) (3 μM) | HBE2 Activity at 3 μM (%) (3 μM corrector) | other results
1 | Cc1cccc(C)c1-c1cc2nc(n1)NS(=O)(=O)c1cccc(c1)C(=O)N(Cc1cncc(N3CC4OCC[C@@H]43)n1)[C@H](CC(C)(C)C)CO2 (stereo in doubt) [Compound 1629] | +++ (+++ is >60+) | – | –
2 | Cc1cccc(C)c1-c1cc2nc(n1)NS(=O)(=O)c1cccc(c1)C(=O)N(Cc1cncc(N3CC[C@@H]3C)n1)[C@H](CC1CCCC1)CO2 (stereo in doubt) [Compound 1843] | – | +++ (+++ is >60+) | –
3 | Cc1cccc(C)c1-c1cc2nc(n1)NS(=O)(=O)c1cccc(c1)C(=O)N(Cc1cncc(N(C)C3CCC3)n1)[C@@H]1CN(C3CC4(CCCC4)C3)C[C@H]1O2 [Compound 1323, (3R,7R)-8-[[6-[Cyclobutyl(methyl)amino]pyrazin-2-yl]methyl]-19-(2,6-dimethylphenyl)-15,15-dioxo-5-spiro[3.4]octan-2-yl-2-oxa-15λ^6-thia-5,8,16,18,21-pentazatetracyclo[15.3.1.110,14.03,7]docosa-1(20),10,12,14(22),17(21),18-hexaen-9-one] | – | ++ (++ is 30-60%) | –
4 | CO[C@H](C)CN(C)c1cncc(CN2C(=O)c3cccc(c3)S(=O)(=O)Nc3nc(cc(-c4c(C)cccc4C)n3)OC[C@H]2CC(C)(C)C)n1 [Compound 1633] | +++ (+++ is >60+) | – | –
5 | CC[C@@H](C)[C@@H]1COc2cc(-c3c(C)cccc3C)nc(n2)NS(=O)(=O)c2cccc(c2)C(=O)N1Cc1cncc(N(C)C2CCC2)n1 [Compound 1702] | – | – | EC50: < 1 µM; Emax (read-out: HBE2 Max activity (%)): > 60%
6 | CC(C)c1ccccc1-c1cc2nc(n1)NS(=O)(=O)c1cccc(c1)C(=O)N(Cc1cncc(N(C)C3CCC3)n1)[C@H](CC(C)(C)C)CO2 [Compound 1704] | +++ (+++ is >60+) | – | –
7 | Cc1cccc(C)c1-c1cc2nc(n1)NS(=O)(=O)c1cccc(c1)C(=O)N(Cc1cncc(N(C)CC3(C)CC3)n1)[C@H](CC(C)(C)C)CO2 [Compound 1757] | – | +++ (+++ is >60+) | –
8 | Cc1cccc(C)c1-c1cc2nc(n1)NS(=O)(=O)c1cccc(c1)C(=O)N(Cc1ccc(N3CC(C)(C)C3)cn1)[C@H](CC(C)(C)C)CO2 [Compound 1655] | +++ (+++ is >60+) | – | –
9 | Cc1cccc(C)c1-c1cc2nc(n1)NS(=O)(=O)c1cccc(c1)C(=O)N(Cc1ncc(N3CCC(C)(C)CC3)cn1)[C@H](CC1(C)CC1)CO2 [Compound 1560] | +++ (+++ is >60+) | – | –
10 | CC[C@@]1(COC)CCCN1c1cccc(CN2C(=O)c3cccc(c3)S(=O)(=O)Nc3nc(cc(-c4c(C)cccc4C)n3)OC[C@H]2CC(C)(C)C)n1 [Compound 1617] | +++ (+++ is >60+) | – | –

Further lines, with some results ahead:

Row | HBE2 Activity at 3 μM (%) (3 μM) | HBE2 Activity at 3 μM (%) (3 μM corrector) | SMILES | other results
11 | – | +++ (+++ is >60+) | Cc1cccc(C)c1-c1cc2nc(n1)NS(=O)(=O)c1cccc(c1)C(=O)N(Cc1cncc(N(C)C3CC(F)(F)C3)n1)[C@H](COC1CC1)CO2 [Compound 1905] | –
12 | – | +++ (+++ is >60+) | Cc1cccc(C)c1-c1cc2nc(n1)NS(=O)(=O)c1cccc(c1)C(=O)N(Cc1cncc(N(C)C3CC4CCC43)n1)[C@H](CC(C)(C)C)CO2 (stereo partly drawn) [Compound 1784] | –
13 | – | +++ (+++ is >60+) | Cc1cccc(C)c1-c1cc2nc(n1)NS(=O)(=O)c1cccc(c1)C(=O)N(Cc1cnc3cc(C(C)C)n(C)c3n1)[C@H](C[C@H]1CCCOC1)CO2 (stereo in doubt) [Compound 1932] | –
14 | – | +++ (+++ is >60+) | Cc1cccc(C)c1-c1cc2nc(n1)NS(=O)(=O)c1cccc(c1)C(=O)N(Cc1nccc(N(C)C(C)C)n1)[C@H](CCC(C)(C)C)CO2 [Compound 1715] | –
15 | – | +++ (+++ is >60+) | Cc1cccc(C)c1-c1cc2nc(n1)NS(=O)(=O)c1cccc(c1)C(=O)N(Cc1cncc(N3CCCC4CCC43)n1)[C@H](CC1(C)CCC1)CO2 (stereo partly drawn) [Compound 1794] | –
16 | – | +++ (+++ is >60+) | Cc1cccc(C)c1-c1cc2nc(n1)NS(=O)(=O)c1cccc(c1)C(=O)N(Cc1cncc(C(C)C)n1)[C@H](CCC(C)(C)C)CO2 [Compound 1842] | –
17 | +++ (+++ is >60+) | – | Cc1cccc(C)c1-c1cc2nc(n1)NS(=O)(=O)c1cccc(c1)C(=O)N(Cc1ncc(OC(C)C)cn1)[C@H]([C@@H](C)C1CC1)CO2 (stereo in doubt) [Compound 1559] | –
